Assay results as given in patent publication US20260035359A1, “HERBICIDAL IMIDAZOLE COMPOUNDS” (SYNGENTA CROP PROTECTION AG, priority 2022, published 2026).

What was measured:
Assay type in all cases: in vivo
[1] = test system: Amaranthus pa/meri (AMAPA); assay: Post-emergence herbicidal glasshouse test; details: 250 g/ha, sprayed after 8 days cultivation, evaluated after 13 days
Summary of the method: (§1)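 Damage scores on a 1–5 scale (5=81-100%; 4=61-80%; 3=41-60%; 2=21-40%; 1=0-20%) reflect percentage plant damage assessed 13 days after spraying 250 g/ha, unless otherwise stated, in acetone/water (50:50) containing 0.5% Tween 20. Pre-emergence plants were treated after one day and post-emergence plants after 8 days of cultivation.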

[2] = test system: Amaranthus retoflexus (AMARE); assay: Post-emergence herbicidal glasshouse test; details: 250 g/ha, sprayed after 8 days cultivation, evaluated after 13 days
Summary of the method: as §1

[3] = test system: Echinochloa crus-gali (ECHCG); assay: Post-emergence herbicidal glasshouse test; details: 250 g/ha, sprayed after 8 days cultivation, evaluated after 13 days
Summary of the method: as §1

[4] = test system: Ipomoea hederacea (IPOHE); assay: Post-emergence herbicidal glasshouse test; details: 250 g/ha, sprayed after 8 days cultivation, evaluated after 13 days
Summary of the method: as §1

Setaria faberi (SETFA) [5] = assay: Post-emergence herbicidal glasshouse test; details: 250 g/ha, sprayed after 8 days cultivation, evaluated after 13 days
Summary of the method: as §1

[6] = test system: Amaranthus pa/meri (AMAPA); assay: Pre-emergence herbicidal glasshouse test; details: 250 g/ha, sprayed after one day cultivation, evaluated after 13 days
Summary of the method: as §1

[7] = test system: Amaranthus retoflexus (AMARE); assay: Pre-emergence herbicidal glasshouse test; details: 250 g/ha, sprayed after one day cultivation, evaluated after 13 days
Summary of the method: as §1

[8] = test system: Echinochloa crus-gali (ECHCG); assay: Pre-emergence herbicidal glasshouse test; details: 250 g/ha, sprayed after one day cultivation, evaluated after 13 days
Summary of the method: as §1

[9] = test system: Ipomoea hederacea (IPOHE); assay: Pre-emergence herbicidal glasshouse test; details: 250 g/ha, sprayed after one day cultivation, evaluated after 13 days
Summary of the method: as §1

Setaria faberi (SETFA) [10] = assay: Pre-emergence herbicidal glasshouse test; details: 250 g/ha, sprayed after one day cultivation, evaluated after 13 days
Summary of the method: as §1

SMILES | percentage damage caused to the plant, AMAPA [1] | percentage damage caused to the plant, AMARE [2] | percentage damage caused to the plant, ECHCG [3] | percentage damage caused to the plant, IPOHE [4] | percentage damage caused to the plant, SETFA (Setaria faberi (SETFA) [5]) | percentage damage caused to the plant, AMAPA [6] | percentage damage caused to the plant, AMARE [7] | percentage damage caused to the plant, ECHCG [8] | percentage damage caused to the plant, IPOHE [9] | percentage damage caused to the plant, SETFA (Setaria faberi (SETFA) [10])
CCOCCc1nc(C(F)(F)F)cn1Cc1ncc(Cl)cn1 [Compound 1.038] | 3 (3=41-60%) | 4 (4=61-80%) | 3 (3=41-60%) | 4 (4=61-80%) | 3 (3=41-60%) | 5 (5=81-100%) | 5 (5=81-100%) | 5 (5=81-100%) | 5 (5=81-100%) | 5 (5=81-100%)
CC(C)(C#N)CCc1nc(C(F)(F)F)cn1Cc1ncc(Cl)cn1 [Compound 1.062] | 2 (2=21-40%) | 2 (2=21-40%) | 1 (1=0-20%) | 3 (3=41-60%) | 2 (2=21-40%) | 5 (5=81-100%) | 5 (5=81-100%) | 4 (4=61-80%) | 5 (5=81-100%) | 4 (4=61-80%)
CC(C)(C#N)Cc1nc(C(F)(F)F)cn1Cc1ncc(Cl)cn1 [Compound 1.061] | 3 (3=41-60%) | 4 (4=61-80%) | 1 (1=0-20%) | 4 (4=61-80%) | 1 (1=0-20%) | 3 (3=41-60%) | 3 (3=41-60%) | 1 (1=0-20%) | 4 (4=61-80%) | 1 (1=0-20%)
CC(C)Cc1nc(C(F)(F)F)cn1Cc1ncc(Cl)cn1 [Compound 1.021] | 3 (3=41-60%) | 3 (3=41-60%) | 1 (1=0-20%) | 3 (3=41-60%) | 1 (1=0-20%) | 5 (5=81-100%) | 3 (3=41-60%) | 1 (1=0-20%) | 4 (4=61-80%) | 1 (1=0-20%)
FC(F)(F)CCCc1nc(Cl)c(Cl)n1Cc1ncc(Cl)cn1 [Compound 1.004, 5-chloro-2-[[4,5-dichloro-2-(4,4,4-trifluorobutyl)imidazol-1-yl]methyl]pyrimidine] | 4 (4=61-80%) | 4 (4=61-80%) | 3 (3=41-60%) | 3 (3=41-60%) | 4 (4=61-80%) | 5 (5=81-100%) | 5 (5=81-100%) | 3 (3=41-60%) | 2 (2=21-40%) | 4 (4=61-80%)
FC(F)(F)c1cn(Cc2ncc(Cl)cn2)c(CCn2ccc(C(F)(F)F)n2)n1 [Compound 1.033] | 3 (3=41-60%) | 4 (4=61-80%) | 3 (3=41-60%) | 4 (4=61-80%) | 3 (3=41-60%) | 5 (5=81-100%) | 5 (5=81-100%) | 3 (3=41-60%) | 5 (5=81-100%) | 4 (4=61-80%)
FC(F)(F)CCc1nc(C(F)(F)F)cn1Cc1ncc(Cl)cn1 [Compound 1.002, 5-chloro-2-[[4-(trifluoromethyl)-2-(3,3,3-trifluoropropyl)imidazol-1-yl]methyl]pyrimidine] | 5 (5=81-100%) | 5 (5=81-100%) | 5 (5=81-100%) | 5 (5=81-100%) | 5 (5=81-100%) | 5 (5=81-100%) | 5 (5=81-100%) | 5 (5=81-100%) | 5 (5=81-100%) | 5 (5=81-100%)
CCCCc1nc(C(F)(F)F)cn1Cc1ncc(Cl)cn1 [Compound 1.026] | 5 (5=81-100%) | 5 (5=81-100%) | 2 (2=21-40%) | 4 (4=61-80%) | 2 (2=21-40%) | 5 (5=81-100%) | 5 (5=81-100%) | 3 (3=41-60%) | 3 (3=41-60%) | 5 (5=81-100%)
N#CC1(c2nc(C(F)(F)F)cn2Cc2ncc(Cl)cn2)CC1 [Compound 1.060] | 2 (2=21-40%) | 2 (2=21-40%) | 1 (1=0-20%) | 2 (2=21-40%) | 1 (1=0-20%) | 2 (2=21-40%) | 2 (2=21-40%) | 1 (1=0-20%) | 3 (3=41-60%) | 1 (1=0-20%)
